From US20080050443A1, “Fast Release Composition Including Melt Granules of a Moisture Sensitive Drug and Process for Manufacturing Thereof” (priority 2004, published 2008)

Test: Moisture sensitivity of Compound I
Format: physicochemical
Description: This monohydrochloride of formula (I) (hereinafter, “Compound I”) is described in scheme 2 of Villhauer et al., J Med Chem, Vol. 45, No. 12, pp. 2362-65 (2002), which is hereby incorporated by reference. Compound I is a moisture-sensitive therapeutic compound. At humidities above 75%, Compound I absorbs moisture and begins to deliquesce; moreover, Compound I undergoes both acidic and basic degradation with cyclic imidate (“CI”) being the major degradation product.

Cl.N#Cc1ccc(NCCNCC(=O)N2CCC[C@H]2C#N)nc1 [Compound I, [S]-1-[2-(5-cyano-2-pyridinylamino)ethylamino]acetyl-2-pyrolidine carbonitrile monohydrochloride]
humidity at which Compound I absorbs moisture and begins to deliquesce: above 75%
